The target in one assay is c-Src (Homo sapiens, UniProt P12931). Put plainly: c-Src activation (autophosphorylation), anti-c-Src immunoprecipitation and immunoblot. Format: cell-based. To be noted: HCT116/MUC1 cells. On the procedure:
(§1) Cell culture. Human HCT116/vector, HCT116/MUC1, HCT116/MUC1(Y46F) (Ren et al. (2004) Cancer Cell 5:163-175) and HCT116/MUC1-CD (Huang et al. (2003) Cancer Biol. Ther. 2:702-706) cells were cultured in Dulbecco's Modified Eagle Medium/F12 with 10% heat-inactivated fetal bovine serum (HI-FBS), 100 units/ml penicillin, […], and 2 mM L-glutamine. Human HeLa cervical carcinoma, 293 embryonic kidney and MCF-7 breast cancer cells were grown in Dulbecco's Modified Eagle Medium containing 10% HI-FBS, antibiotics and L-glutamine. Human ZR-75-1 breast cancer cells were cultured in RPMI1640 medium containing 10% HI-FBS, antibiotics and L-glutamine. Cells were grown to 60% confluence and then maintained overnight in medium with 0.1% serum before treatment with heregulin (HRG; 20 ng/ml; Calbiochem-Novabiochem, LaJolla, Calif.).
Immunoprecipitation and immunoblotting. […] Reactivity was detected with horseradish peroxidase-conjugated secondary antibodies and chemiluminescence (PerkinElmer Life Sciences, Boston, Mass.). Intensity of the signals was determined by densitometric scanning. Statistical significance was determined by the Student's t-test.

In assay [1] the test system is localization of MUC1-C to mitochondria. Kind of assay: Immunoblot of purified mitochondria for MUC1 targeting. Format: cell-based, Human. Particulars: HCT116/MUC1 cells. On the procedure:
as §1
(§2) Immunoprecipitation and immunoblotting. […] Reactivity was detected with horseradish peroxidase-conjugated secondary antibodies and chemiluminescence (PerkinElmer Life Sciences, Boston, Mass.). Intensity of the signals was determined by densitometric scanning. Statistical significance was determined by the Student's t-test. […]

Assay [2] has as its system binding of MUC1 and HSP90. Kind of assay: MUC1-HSP90 co-immunoprecipitation and immunoblot in cells. Format: cell-based, Human. As for the experimental part: Cell culture. […] Human ZR-75-1 breast cancer cells were cultured in RPMI1640 medium containing 10% HI-FBS, antibiotics and L-glutamine. Cells were grown to 60% confluence and then maintained overnight in medium with 0.1% serum before treatment with heregulin (HRG; 20 ng/ml; Calbiochem-Novabiochem, LaJolla, Calif.).
Immunoprecipitation and immunoblotting. […] Lysates not subjected to immunoprecipitation were immunoblotted with anti-MUC1-C, anti-HSP60 (Stressgen Biotechnologies, Victoria, BC, Canada), anti-PDGFR (Santa Cruz Biotechnology), anti-BAP31 (Abcam, Cambridge, Mass.), anti-PCNA (Calbiochem-Novabiochem), anti-IkBa (Santa Cruz Biotechnology), anti-calreticulin (Stressgen Biotechnologies), anti-Tom20 (BD Biosciences), anti-Tim23 (BD Biosciences), anti-Tim44 (BD Biosciences) or anti-β-actin (Sigma-Aldrich). Reactivity was detected with horseradish peroxidase-conjugated secondary antibodies and chemiluminescence (PerkinElmer Life Sciences, Boston, Mass.). Intensity of the signals was determined by densitometric scanning. Statistical significance was determined by the Student's t-test.
Subcellular fractionation. […] SM buffer ([…]) was added to one aliquot, and hypotonic buffer (10 mM MOPS-KOH, pH 7.2; […]) was added to the other aliquot. The samples were incubated for 15 minutes on ice and then left untreated or digested with […] trypsin (Sigma-Aldrich) for 15 minutes at 4° C. In other experiments, purified mitochondria in suspension buffer (5 mM HEPES, pH 7.4, 210 mM mannitol, 70 mM sucrose, 100 mM KCl, and 1 mM EGTA) were treated with 0.5% or 1% digitonin (Sigma-Aldrich) for 15 minutes at 4° C. Alternatively, the mitochondria were incubated with 0.5% digitonin for 1 minute at 4° C., diluted with suspension buffer, and then treated with […] trypsin for 15 minutes at 4° C.
In general terms: In western blotting, separated proteins are transferred to a membrane and probed.

In assay [3] the target is HSP70 (endogenous, in lysates of human cells) (human) (UniProt P0DMV8). Put plainly: anti-MUC1-N immunoprecipitation from HCT116/MUC1 lysates, immunoblot, scanning densitometry.
Assay [4] has as its system purified recombinant human HSP90. Kind of assay: GST pull-down binding study with recombinant HSP90. Particulars: for binding to HSP90 after incubation with c-Src and ATP: GST fusion proteins incubated with c-Src and ATP 20 minutes at 30° C., then HSP90 1 hour at 4° C. As for the experimental part:
(§3) Binding Studies. Sequences encoding MUC1-CD, MUC1-CD(1-45), or MUC1-CD(46-72) were amplified by PCR and cloned into the pGEX-4T vector (Amersham Biosciences, Piscataway, N.J.). Purified GST-MUC1-CD fusion proteins bound to glutathione beads were incubated with purified recombinant human HSP70 or HSP90 (Stressgen Biotechnologies) for 1 hour at 4° C. In other experiments, the purified GST fusion proteins bound to glutathione beads were incubated with or without 50 ng c-Src (Upstate Biotechnology) in the presence of […] for 20 minutes at 30° C. HSP90 was then added for 1 hour at 4° C. Precipitated proteins were subjected to immunoblot analysis with anti-HSP70 or anti-HSP90.

In assay [5] the target is T1, purified recombinant human HSP70 (Homo sapiens, UniProt P0DMV8).
T1 construct: purchased Stressgen Biotechnologies
Kind of assay: GST pull-down binding study with recombinant HSP70. Particulars: GST fusion proteins on glutathione beads, 1 hour at 4° C., no c-Src. On the procedure:
as §3

A further assay concerns cytosolic MUC1-C levels. Kind of assay: Immunoblot of cytosolic fractions for MUC1-C. Format: cell-based, Human. Particulars: cytosolic fraction of HCT116/MUC1 cells; HRG 10 minutes. As for the experimental part:
as §1, §2

The subject of assay [6] is binding of MUC1 and HSP70. Kind of assay: MUC1-HSP70 co-immunoprecipitation and immunoblot in cells. Format: cell-based, Human. Particulars: HRG 10 minutes. As for the experimental part:
as §1
Immunoprecipitation and immunoblotting. Equal amounts of protein from cell lysates were incubated with anti-MUC1-N (antibody DF3) (Kufe et al. (1984) Hybridoma 3:223-232), anti-Flag (Sigma-Aldrich, St. Louis, Mo.), anti-c-Src (Upstate Biotechnology, Lake Placid, N.Y.), anti-HSP90 (BD Biosciences PharMingen, San Diego, Calif.) or normal mouse IgG (Santa Cruz Biotechnology, Santa Cruz, Calif.) for 2 hours at 4° C. Immune complexes were prepared as described (Li et al. (1998) Mol. Cell. Biol. 18:7216-7224) and subjected to immunoblot analysis with anti-HSP70, anti-HSP90, anti-MUC1-N, anti-MUC1-C (Ab5; Neomarkers, Fremont, Calif.), anti-phospho-c-Src(Tyr416) (Cell Signaling Technology, Beverly, Mass.) or anti-c-Src. […] Reactivity was detected with horseradish peroxidase-conjugated secondary antibodies and chemiluminescence (PerkinElmer Life Sciences, Boston, Mass.). Intensity of the signals was determined by densitometric scanning. Statistical significance was determined by the Student's t-test.

Assay [7] has as its target T2, purified recombinant human HSP90 (human, UniProt P08238 1-724, limits assumed).
T2 construct: Bought (Stressgen Biotechnologies); also called recombinant HSP90
Put plainly: GST pull-down with recombinant HSP90 after incubation with c-Src and ATP, anti-HSP90 immunoblot.

Data on seven molecules can be found in patent publication US8017315B2, “Mitochondrial localization of MUC1” (Dana Farber Cancer Institute, Inc., priority 2005, dated 2011).

Ends that are not written are not given here.

T1 sequence (P0DMV8 2-641 limits assumed): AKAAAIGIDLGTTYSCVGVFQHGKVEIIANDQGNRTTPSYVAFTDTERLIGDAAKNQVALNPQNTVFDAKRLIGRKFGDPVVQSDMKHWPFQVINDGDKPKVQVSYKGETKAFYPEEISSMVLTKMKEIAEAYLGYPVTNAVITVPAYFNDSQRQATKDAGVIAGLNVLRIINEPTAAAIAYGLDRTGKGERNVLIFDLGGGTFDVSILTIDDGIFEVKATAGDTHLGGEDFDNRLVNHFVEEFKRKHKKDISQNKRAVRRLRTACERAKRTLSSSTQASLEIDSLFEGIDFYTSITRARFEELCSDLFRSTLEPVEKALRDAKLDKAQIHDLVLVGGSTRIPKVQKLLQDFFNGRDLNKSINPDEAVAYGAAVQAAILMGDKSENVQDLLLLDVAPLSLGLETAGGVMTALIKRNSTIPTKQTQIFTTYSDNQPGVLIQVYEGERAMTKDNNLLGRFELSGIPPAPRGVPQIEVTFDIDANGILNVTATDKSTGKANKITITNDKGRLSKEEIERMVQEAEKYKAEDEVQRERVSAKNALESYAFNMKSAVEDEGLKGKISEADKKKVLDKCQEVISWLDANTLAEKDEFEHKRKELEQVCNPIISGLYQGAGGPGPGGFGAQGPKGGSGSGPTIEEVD
T2 sequence (P08238 whole entry T147R/R177M): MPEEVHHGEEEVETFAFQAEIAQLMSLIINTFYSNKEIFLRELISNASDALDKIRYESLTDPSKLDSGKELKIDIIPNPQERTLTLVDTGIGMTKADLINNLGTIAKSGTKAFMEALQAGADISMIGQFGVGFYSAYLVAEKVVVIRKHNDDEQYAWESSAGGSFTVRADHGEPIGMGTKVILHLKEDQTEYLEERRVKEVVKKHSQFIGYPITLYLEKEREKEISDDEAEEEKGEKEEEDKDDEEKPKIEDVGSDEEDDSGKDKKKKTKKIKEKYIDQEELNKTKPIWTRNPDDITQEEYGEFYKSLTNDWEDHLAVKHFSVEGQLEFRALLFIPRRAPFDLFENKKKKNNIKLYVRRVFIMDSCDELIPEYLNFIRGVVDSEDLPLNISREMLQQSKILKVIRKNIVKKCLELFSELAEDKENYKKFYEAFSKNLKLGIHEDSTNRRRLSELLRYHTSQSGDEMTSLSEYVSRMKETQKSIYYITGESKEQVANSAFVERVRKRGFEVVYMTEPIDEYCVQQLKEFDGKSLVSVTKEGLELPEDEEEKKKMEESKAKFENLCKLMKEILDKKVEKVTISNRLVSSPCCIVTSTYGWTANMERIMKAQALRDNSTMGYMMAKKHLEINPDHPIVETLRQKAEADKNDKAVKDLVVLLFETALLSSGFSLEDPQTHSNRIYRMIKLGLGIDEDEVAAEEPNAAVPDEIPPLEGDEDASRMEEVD

As to `CC(C)(C)n1nc(-c2ccc(Cl)cc2)c2c(N)ncnc21` [PP2, reference compound], the “HRG-induced c-Src activation” value at c-Src (PP2 10 μM for 1 hour, then HRG 20 ng/ml 10 minutes) is listed as “blocked HRG-induced c-Src activation”. In addition, the “HRG-induced targeting of MUC1 to mitochondria in presence of inhibitor” value in [1] (PP2 or GA for 1 hour, then HRG) was “attenuated”. The “HRG-induced binding of MUC1 and HSP90 in presence of inhibitor” value in assay [2] (HCT116/MUC1 cells, PP2 10 μM or GA 1 μM for 1 hour, then HRG, anti-MUC1-N precipitates) is listed as “attenuated this response”.
Regarding “MUC1 (human, full length, expressed in cells) (from UniProt P15941 24-1255)”, the percent of the total HSP70 pool associated with MUC1 in assay [3] stood at 0.6%.
For “MUC1-CD(1-45): GST fusion deletion mutant, amino acids 1-45 of the MUC1 cytoplasmic domain (CQCRRKNYGQLDIFPARDTYHPMSEYPTYHTHGRYVPPSSTDRSP; not fully specified; cysteine pairing not given here; also: fused to GST)”, in assay [4], the “binding to HSP90 after incubation with c-Src and ATP” value (shortened to “binding to HSP90 after incubation”) is on record as “no detectable binding of HSP90”.
As for “MUC1-CD(46-72): GST fusion of amino acids 46-72 (YEKVSAGNGGSSLSYTNPAVAATSANL; SEQ ID NO:2) of the human MUC1 CD (not fully specified; also: fused to GST)”, the “binding to HSP70” value in assay [5] is on record as “binding to HSP70 was detected”. For the same molecule, the “binding to HSP90 after incubation” value in assay [4] is given as “no detectable binding of HSP90”.
For “MUC1-CD: GST fusion of the 72 amino acid MUC1 cytoplasmic domain (SEQ ID NO:1)”, the “binding to HSP70” value in [5] was “binds to HSP70”. In addition, the “binding to HSP90” value in assay [4] (GST fusion protein on glutathione beads, 1 hour at 4° C., no c-Src) is on record as “but not HSP90”. In addition, the “binding to HSP90 after incubation” value in [4] was “c-Src induced binding of MUC1-CD to HSP90”.
heregulin [HRG]: the “cytosolic MUC1-C levels” value in the assay with cytosolic MUC1-C levels was “increase in cytosolic MUC1-C levels”. Also, the “c-Src activation as determined by autophosphorylation” value on c-Src (HRG 20 ng/ml 10 minutes) is “activated c-Src”. Besides, the “localization of MUC1-C to mitochondria on HRG stimulation” value in [1] (HRG 10 minutes) was “induces localization of MUC1-C, and not MUC1-N, to mitochondria”. In addition, the “binding of MUC1-CD to HSP70 on HRG stimulation” value in [6] (HCT116/MUC1-CD (Flag-MUC1-CD) cells) was “little effect on binding of MUC1-CD to HSP70”. For the same molecule, the “binding of endogenous MUC1 and HSP70 on HRG stimulation” value in [6] (MCF-7 breast cancer cells) was “little if any effect on this interaction”; in [6] (ZR-75-1 breast cancer cells), “no apparent effect on the constitutive interaction between MUC1 and HSP70”. For the same molecule, the “binding of MUC1-CD to HSP90 on HRG stimulation” value in [2] (HCT116/MUC1-CD (Flag-MUC1-CD) cells, HRG 10 minutes) was “stimulated binding of MUC1-CD to HSP90”. The “binding of MUC1 and HSP90 on HRG stimulation” value in [2] (HCT116/MUC1 cells, HRG 20 ng/ml 10 minutes) is “increase in binding of MUC1 and HSP90”. In addition, the “binding of endogenous MUC1 and HSP90 on HRG stimulation” value in assay [2] (MCF-7 breast cancer cells, HRG 10 minutes) is “increased binding of MUC1 and HSP90”; in [2] (ZR-75-1 breast cancer cells, HRG 10 minutes), “increased binding of MUC1 and HSP90”. In addition, the “binding of cytosolic MUC1-C and HSP90” value in assay [2] (cytosolic fraction of HCT116/MUC1 cells, HRG 10 minutes, anti-HSP90 precipitates) is “increases binding of cytosolic MUC1-C and HSP90”. The “binding of MUC1 and HSP90 at the cell membrane” value in assay [2] (purified cell membranes of HCT116/MUC1 cells, HRG 10 minutes) was “stimulates binding of MUC1 and HSP90 at the cell membrane”.

B1: GST-MUC1-CD(1-45) (other)
chain: CQCRRKNYGQLDIFPARDTYHPMSEYPTYHTHGRYVPPSSTDRSP
modifications: not fully specified; cysteine pairing not given here; also: N-terminal GST fusion (pGEX-4T), sequence not given here
notes: Deletion mutant of MUC1-CD on glutathione beads; it lacks Y-46; not shown: glutathione S-transferase (GST) tag encoded by the pGEX-4T vector
Consider B1, for which, in assay [7], the binding result is “no binding”.
